Molecules are shown by their SMILES.

This experiment has as its system GVIA iPLA2 (Homo sapiens). As to the kind of experiment: Inhibition of human recombinant GVIA iPLA2 using 400 uM Triton X-100/98.3 uM PAPC/1.7 uM 14C-labeled PAPC substrate mixedmicelles at 1 uM.
As for `CCCCCCCCc1ccc(OCC(=O)c2nc(CC(=O)OCC)cs2)cc1`, the inhibition was found to be 76%.
The same measure for `CCCCCCCCCCCCOCC(=O)c1nc(C(=O)OCC)cs1`: 92%.
Consider `CCCCCCCCCCCCOCC(=O)c1nc(CC(=O)OCC)cs1`, for which the inhibition amounted to 91%.
For the molecule `CCCCCCCCc1ccc(OCC(=O)c2nc3ccccc3s2)cc1`, the inhibition is 77%.
In the case of `O=C(COc1ccc(F)cc1)c1nccs1`, the inhibition worked out at 5%.
Consider `O=C(COc1ccccc1)c1nccs1`, for which the inhibition worked out at 13%.
Consider `CCCCCCCCc1ccc(OCC(=O)c2nccs2)cc1`, for which the inhibition came to 67%.
As to `O=C(COc1ccc(-c2ccccc2)cc1)c1nccs1`, the inhibition was determined as 23%.
